# Data from publication PMC10729961, “Putative purine nucleoside interacting residues in the malaria parasite purine uptake transporter PfENT1 are critical for transporter function” (PLOS ONE, 2023).
# “Also recorded” adds a separate entry of the source.
# Assays:
# Test in all cases: 5-Fluorouridine (5-FUrd) toxicity assay
# Assay type in all cases: cell-based
# [1] = system: yeast expressing N51C PfENT1; settings: 500 μM adenine plus 125 μM 5-FUrd, OD600 at 24 h
# Procedure: (§1) 5-FUrd toxicity was measured in a subset of the PfENT1 mutants. Mutants were grown overnight in SDM with 1 mM adenine. Meanwhile, purine auxotrophic yeast were grown in YPD overnight. Yeast strains were spun down and resuspended in sterile water then added to the honeycomb plates with SDM media with NP40 (final concentration of 0.1%) containing either no adenine, 500 μM adenine, or 500 μM adenine plus 125 μM 5-FUrd (Fisher Scientific Cat. #AAJ6208303) with an initial OD600 = 0.05 and a final volume of 150 μL. Typically, 10 μL of yeast (final concentration of resuspended yeast OD600 = around 0.8) were added to 140 μL of media. Each trial contained triplicates. The 100-well honeycomb plate was placed in the Bioscreen C for 24-h under continuous high shaking at 30°C. The endpoint OD600 was measured at 24 h. Each experiment was repeated at least three times on separate days.
# [2] = system: yeast expressing W53C PfENT1; settings: 500 μM adenine plus 125 μM 5-FUrd, OD600 at 24 h
# Procedure: as §1
# [3] = system: purine auxotrophic yeast (ade2Δ, fui1Δ); settings: ade2Δ strain; 500 μM adenine plus 125 μM 5-FUrd; OD600 at 24 h
# Procedure: as §1
# [4] = system: yeast expressing S290C PfENT1; settings: 500 μM adenine plus 125 μM 5-FUrd, OD600 at 24 h
# Procedure: as §1
# [5] = system: yeast expressing Q135C PfENT1; settings: 500 μM adenine plus 125 μM 5-FUrd, OD600 at 24 h
# Procedure: as §1
# [6] = system: yeast expressing L50C PfENT1; settings: 500 μM adenine plus 125 μM 5-FUrd, OD600 at 24 h
# Procedure: as §1
# [7] = system: yeast expressing WT PfENT1; settings: 500 μM adenine plus 125 μM 5-FUrd, OD600 at 24 h
# Procedure: as §1
# [8] = system: yeast expressing R291C PfENT1; settings: 500 μM adenine plus 125 μM 5-FUrd, OD600 at 24 h
# Procedure: as §1
# [9] = system: yeast expressing D287C PfENT1; settings: 500 μM adenine plus 125 μM 5-FUrd, OD600 at 24 h
# Procedure: as §1
# [10] = system: yeast expressing F286C PfENT1; settings: 500 μM adenine plus 125 μM 5-FUrd, OD600 at 24 h
# Procedure: as §1
smiles,measurement,setting,value
"O=c1[nH]c(=O)n([C@@H]2O[C@H](CO)[C@@H](O)[C@H]2O)cc1F [5-FUrd, 5-Fluorouridine]",5-FUrd assay,[1],did not grow; also recorded: killed-functional
same,5-FUrd assay,[2],did grow; also recorded: growth-non-functional*
same,5-FUrd assay,[3],growth-non-functional
same,5-FUrd assay,[4],did grow; also recorded: growth-non-functional*
same,5-FUrd assay,[5],did grow; also recorded: growth-non-functional*
same,5-FUrd assay,[6],did not grow; also recorded: killed-functional
same,5-FUrd assay,[7],did not grow; also recorded: killed-functional
same,5-FUrd assay,[8],did grow; also recorded: growth-non-functional*
same,5-FUrd assay,[9],did grow; also recorded: growth-non-functional*
same,5-FUrd assay,[10],did not grow; also recorded: killed-functional
